Experiment [1] concerns the target T1, PD-L1 (Homo sapiens, UniProt Q9NZQ7). The note with it: xenograft model, T-cell dependent mechanism; cited from earlier work.
Experiment [2] concerns the target T1, PD-L1. The note with it: in vitro; cited from earlier work.
Experiment [3] concerns metastatic melanoma. The note with it: of the 15 responders; cited from earlier work.
Experiment [4] concerns metastatic melanoma. Description: Riaz et al clinical cohort: response to nivolumab by tumour mtDNA mutation status. It is filed as in vivo, humans. How it is done:
A—Stratification of a metastatic melanoma patient cohort by mtDNA status. […] P-values were determined using one-way ANOVA test with Sidak multiple comparisons test (C,F), one-tailed student's t-test (I) or chi-squared test (H) were applied. Error bars indicate SD. Measure of centrality is mean.
The inventors then assessed whether this would be associated with clinical outcome.
Aligned reads for ChrM for patients' tumour and normal samples were acquired and processed according to previously described pipelines which are now publicly available (see e.g. Gorelick et al., Nature Metabolism 2021). Mutation calls and calculated heteroplasmy were used to assign patients to mtDNA wildtype, <50% VAF or >50% VAF groups.

The values below come from patent US20260152799A1, “TUMOUR STRATIFICATION FOR RESPONSIVENESS TO AN IMMUNE CHECKPOINT INHIBITOR” (MEMORIAL SLOAN-KETTERING CANCER CENTER, priority 2022, published 2026).

T1 sequence (Q9NZQ7 19-290): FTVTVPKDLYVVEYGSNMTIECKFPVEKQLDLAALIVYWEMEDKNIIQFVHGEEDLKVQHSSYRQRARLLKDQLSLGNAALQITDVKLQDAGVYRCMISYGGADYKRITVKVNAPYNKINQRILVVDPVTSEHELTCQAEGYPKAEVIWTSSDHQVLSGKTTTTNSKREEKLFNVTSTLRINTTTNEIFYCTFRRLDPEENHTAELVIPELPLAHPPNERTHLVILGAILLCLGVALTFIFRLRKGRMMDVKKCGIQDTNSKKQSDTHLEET

“MEDI4736: anti-PD-L1 antibody selective for PD-L1 that blocks binding of PD-L1 to PD-1 and CD80”: the “Effect on tumour growth” value in experiment [1] is “inhibit tumour growth”. For the same substance, the “Effect on PD-L1-mediated suppression of human T-cell activation” value in experiment [2] was “relieve PD-L1-mediated suppression of human T-cell activation”.
For the substance nivolumab, the Complete responses in experiment [3] is on record as 3. Moreover, the Partial responses in experiment [3] is 12. The “Tumours responding to nivolumab” value is recorded as 17% in experiment [4] (<50% VAF tumours) and 40% in experiment [4] (>50% VAF tumours). The “Complete responders categorised as >50% VAF” value in experiment [4] (out of the 3 complete responders) stood at 2.
